Laboratory results published in patent publication US10952433B2, “Solutions for enhancing the effectiveness of insecticides and fungicides on living plants and related methods” (priority 2015, dated 2021).

Key:
[1] = tested on: staining fungi of the ceratocystis variety; test: Staining fungi in stem wound of white oak seedlings after trunk spray (Table 4); type: in vivo, ceratocystis (on white oak seedlings)
Description: Fourteen days after the stem wounding, wounds were examined for the presence of staining fungi. In creating these for solution were used the buffer and amine oxides were added to the dilute solution of fungicide.
Referring to TABLE 4 wherein a commonly used fungicide, Propiconazole was employed in tests in the amount of 50:200 PPM (parts per million) employed with and without buffered amine oxides systems 3 and 4 with some of the tests employing the 12 carbon length and others, the 1218 carbon mixture. In a preferred embodiment in 1218 on a weight basis, the 12 carbon length will be present in an amount of about 1.3 to 2.0 times the amount of 18 carbon length and in the preferred range about 1.5 to 1.8 times the amount of 18 carbon length. The tests were performed on white oak seedlings which were provided with a stem wound in which was introduced staining fungi which was of the ceratocystis variety.
The method of testing the materials was to spray the trunk of the seedling with the particular solution being tested and 7 days after such application, creating a wound of approximately 2 millimeters by 10 millimeters on each seedling stem. Fourteen days after the wounding, the wounds were examined for the presence of staining fungi.

[2] = tested on: staining fungi (macerated fungal blend); test: Staining fungi coverage in inoculated stem wound of red oak seedlings, greenhouse (Table 6)
Description: In performing the tests employing ten red oak seedlings per iteration with the materials being tested applied at approximately 12 milliliters per seeding applied with a low volume hand spray. […] Seven days after application, a sterile razor blade wound of approximately 2 millimeters by 10 millimeters was created on each seedling stem. Immediately after, the wounding 1 ml of macerated fungal blend suspended in distilled water was applied to each stem wound. Twenty-eight days after wounding, the wounds were evaluated for an average percentage of staining fungi present in each seedling stem wound. Opaque black straw covering was applied to each wound. The opaque black straws were applied within about one minute after wounding and inoculation with the fungi. […] The purpose for using such straws is to facilitate the creation of a dark environment on the wound as fungi tend to like dark damp places. This is employed to enhance the effectiveness of the test by accelerating the severity of the fungal growing conditions. Each stem wound was given two ml of distilled water 10, 17, 21 and 28 days after wounding by a low volume trigger spray. All solutions were included a propylene glycol based dye at a concentration of 100:1. The greenhouse conditions were maintained at 65° F. to 85° F. and the humidity range of 30 to 80% relative humidity. The test which employed the combination of thiabendazole, fludioxonil and azoxystrobin was obtained as a formulated pesticide product which was available under the trade designation “Sporgard”.
The final column is a numerical grade which represents the percent of staining fungi coverage in percentage in the stem wound of the red oak seedlings as measured on day 28.

[3] = fungicide + Amine Oxide 12 (No Buffer) 200:1, PPM: Thiabendazole/Fludioxonil/Azoxystrobin 160, Chlorothalonil 1235, Propiconazole 102, Mancozeb 1097, Vinclozolin 122, Mefenoxam 20
[4] = fungicide + Amine Oxide 1218 (No Buffer) 200:1, PPM: Thiabendazole/Fludioxonil/Azoxystrobin 160, Chlorothalonil 1235, Propiconazole 103, Mancozeb 1097, Vinclozolin 122, Mefenoxam 20
[5] = fungicide + Buffer System 3 200:1, no amine oxide, PPM: Thiabendazole/Fludioxonil/Azoxystrobin 160, Chlorothalonil 1235, Propiconazole 101, Mancozeb 1097, Vinclozolin 122, Mefenoxam 20
[6] = fungicide + buffered amine oxide, Buffer System 3, amine oxide 12, 200:1, PPM: Thiabendazole/Fludioxonil/Azoxystrobin 160, Chlorothalonil 1235, Propiconazole 105, Mancozeb 1097, Vinclozolin 122, Mefenoxam 20
[7] = fungicide + buffered amine oxide, Buffer System 3, amine oxide 1218, 200:1, PPM: Thiabendazole/Fludioxonil/Azoxystrobin 160, Chlorothalonil 1235, Propiconazole 107, Mancozeb 1097, Vinclozolin 122, Mefenoxam 20
[8] = fungicide alone, highest amount, PPM: Thiabendazole/Fludioxonil/Azoxystrobin 640, Chlorothalonil 4940, Propiconazole 400, Mancozeb 4388, Vinclozolin 488, Mefenoxam 80
[9] = fungicide alone, increased amount, PPM: Thiabendazole/Fludioxonil/Azoxystrobin 320, Chlorothalonil 2470, Propiconazole 200, Mancozeb 2194, Vinclozolin 244, Mefenoxam 40
[10] = fungicide alone, PPM: Thiabendazole/Fludioxonil/Azoxystrobin 160, Chlorothalonil 1235, Propiconazole 100, Mancozeb 1097, Vinclozolin 122, Mefenoxam 20

## CCCC1COC(Cn2cncn2)(c2ccc(Cl)cc2Cl)O1 (stereo not drawn) [Propiconazole]
[1]; Propiconazole 50 PPM + buffered amine oxide system 3, amine oxide 12, 200:1
  Percent of Seedlings with Staining Fungi in Stem Wound of White Oak: 0%
[1]; Propiconazole 50 PPM + buffered amine oxide system 3, amine oxide 12, 400:1
  Percent of Seedlings with Staining Fungi in Stem Wound of White Oak: 20%
[1]; Propiconazole 50 PPM + buffered amine oxide system 3, amine oxide 1218, 200:1
  Percent of Seedlings with Staining Fungi in Stem Wound of White Oak: 0%
[1]; Propiconazole 50 PPM + buffered amine oxide system 3, amine oxide 1218, 400:1
  Percent of Seedlings with Staining Fungi in Stem Wound of White Oak: 0%
[1]; Propiconazole 50 PPM + buffered amine oxide system 4, amine oxide 12, 200:1
  Percent of Seedlings with Staining Fungi in Stem Wound of White Oak: 0%
[1]; Propiconazole 50 PPM + buffered amine oxide system 4, amine oxide 12, 400:1
  Percent of Seedlings with Staining Fungi in Stem Wound of White Oak: 20%
[1]; Propiconazole 50 PPM + buffered amine oxide system 4, amine oxide 1218, 200:1
  Percent of Seedlings with Staining Fungi in Stem Wound of White Oak: 0%
[1]; Propiconazole 50 PPM + buffered amine oxide system 4, amine oxide 1218, 400:1
  Percent of Seedlings with Staining Fungi in Stem Wound of White Oak: 0%
[1]; Propiconazole 50 PPM alone, 14 days after wounding
  Percent of Seedlings with Staining Fungi in Stem Wound of White Oak: 100%
[1]; Propiconazole 100 PPM alone, 14 days after wounding
  Percent of Seedlings with Staining Fungi in Stem Wound of White Oak: 80%
[1]; Propiconazole 200 PPM alone, 14 days after wounding
  Percent of Seedlings with Staining Fungi in Stem Wound of White Oak: 20%
[2]; [3]
  Percent of Staining Fungi Coverage Average (%) in Stem Wound of Red Oak Seedlings (Day 28): 43%
[2]; [4]
  Percent of Staining Fungi Coverage Average (%) in Stem Wound of Red Oak Seedlings (Day 28): 55%
[2]; [5]
  Percent of Staining Fungi Coverage Average (%) in Stem Wound of Red Oak Seedlings (Day 28): 74%
[2]; [6]
  Percent of Staining Fungi Coverage Average (%) in Stem Wound of Red Oak Seedlings (Day 28): 20%
[2]; [7]
  Percent of Staining Fungi Coverage Average (%) in Stem Wound of Red Oak Seedlings (Day 28): 44%
[2]; [8]
  Percent of Staining Fungi Coverage Average (%) in Stem Wound of Red Oak Seedlings (Day 28): 33%
[2]; [9]
  Percent of Staining Fungi Coverage Average (%) in Stem Wound of Red Oak Seedlings (Day 28): 81%
[2]; [10]
  Percent of Staining Fungi Coverage Average (%) in Stem Wound of Red Oak Seedlings (Day 28): 85%

## Mancozeb
[2]; [3]
  Percent of Staining Fungi Coverage Average (%) in Stem Wound of Red Oak Seedlings (Day 28): 58%
[2]; [4]
  Percent of Staining Fungi Coverage Average (%) in Stem Wound of Red Oak Seedlings (Day 28): 30%
[2]; [5]
  Percent of Staining Fungi Coverage Average (%) in Stem Wound of Red Oak Seedlings (Day 28): 67%
[2]; [6]
  Percent of Staining Fungi Coverage Average (%) in Stem Wound of Red Oak Seedlings (Day 28): 24%
[2]; [7]
  Percent of Staining Fungi Coverage Average (%) in Stem Wound of Red Oak Seedlings (Day 28): 30%
[2]; [8]
  Percent of Staining Fungi Coverage Average (%) in Stem Wound of Red Oak Seedlings (Day 28): 22%
[2]; [9]
  Percent of Staining Fungi Coverage Average (%) in Stem Wound of Red Oak Seedlings (Day 28): 35%
[2]; [10]
  Percent of Staining Fungi Coverage Average (%) in Stem Wound of Red Oak Seedlings (Day 28): 74%

## N#Cc1c(Cl)c(Cl)c(Cl)c(C#N)c1Cl [Chlorothalonil]
[2]; [3]
  Percent of Staining Fungi Coverage Average (%) in Stem Wound of Red Oak Seedlings (Day 28): 64%
[2]; [4]
  Percent of Staining Fungi Coverage Average (%) in Stem Wound of Red Oak Seedlings (Day 28): 55%
[2]; [5]
  Percent of Staining Fungi Coverage Average (%) in Stem Wound of Red Oak Seedlings (Day 28): 72%
[2]; [6]
  Percent of Staining Fungi Coverage Average (%) in Stem Wound of Red Oak Seedlings (Day 28): 27%
[2]; [7]
  Percent of Staining Fungi Coverage Average (%) in Stem Wound of Red Oak Seedlings (Day 28): 33%
[2]; [8]
  Percent of Staining Fungi Coverage Average (%) in Stem Wound of Red Oak Seedlings (Day 28): 37%
[2]; [9]
  Percent of Staining Fungi Coverage Average (%) in Stem Wound of Red Oak Seedlings (Day 28): 49%
[2]; [10]
  Percent of Staining Fungi Coverage Average (%) in Stem Wound of Red Oak Seedlings (Day 28): 91%

## COCC(=O)N(c1c(C)cccc1C)[C@H](C)C(=O)OC [Mefenoxam]
[2]; [3]
  Percent of Staining Fungi Coverage Average (%) in Stem Wound of Red Oak Seedlings (Day 28): 38%
[2]; [4]
  Percent of Staining Fungi Coverage Average (%) in Stem Wound of Red Oak Seedlings (Day 28): 25%
[2]; [5]
  Percent of Staining Fungi Coverage Average (%) in Stem Wound of Red Oak Seedlings (Day 28): 52%
[2]; [6]
  Percent of Staining Fungi Coverage Average (%) in Stem Wound of Red Oak Seedlings (Day 28): 16%
[2]; [7]
  Percent of Staining Fungi Coverage Average (%) in Stem Wound of Red Oak Seedlings (Day 28): 21%
[2]; [8]
  Percent of Staining Fungi Coverage Average (%) in Stem Wound of Red Oak Seedlings (Day 28): 23%
[2]; [9]
  Percent of Staining Fungi Coverage Average (%) in Stem Wound of Red Oak Seedlings (Day 28): 42%
[2]; [10]
  Percent of Staining Fungi Coverage Average (%) in Stem Wound of Red Oak Seedlings (Day 28): 64%

## C=CC1(C)OC(=O)N(c2cc(Cl)cc(Cl)c2)C1=O (stereo not drawn) [Vinclozolin]
[2]; [3]
  Percent of Staining Fungi Coverage Average (%) in Stem Wound of Red Oak Seedlings (Day 28): 32%
[2]; [4]
  Percent of Staining Fungi Coverage Average (%) in Stem Wound of Red Oak Seedlings (Day 28): 16%
[2]; [5]
  Percent of Staining Fungi Coverage Average (%) in Stem Wound of Red Oak Seedlings (Day 28): 49%
[2]; [6]
  Percent of Staining Fungi Coverage Average (%) in Stem Wound of Red Oak Seedlings (Day 28): 17%
[2]; [7]
  Percent of Staining Fungi Coverage Average (%) in Stem Wound of Red Oak Seedlings (Day 28): 38%
[2]; [8]
  Percent of Staining Fungi Coverage Average (%) in Stem Wound of Red Oak Seedlings (Day 28): 15%
[2]; [9]
  Percent of Staining Fungi Coverage Average (%) in Stem Wound of Red Oak Seedlings (Day 28): 21%
[2]; [10]
  Percent of Staining Fungi Coverage Average (%) in Stem Wound of Red Oak Seedlings (Day 28): 43%
